ChEMBL document CHEMBL4651402, “Screening of ~5500 FDA-approved drugs and clinical candidates for anti-SARS-CoV-2 activity” (2021)

Key:
[1] = in vitro; conditions: chlorocebus sabaeus
[2] = system: SARS-CoV-2; experiment: microbe, parasite or virus in culture; format: functional, organism-based, Chlorocebus sabaeus, Vero C1008; conditions: Severe acute respiratory syndrome coronavirus 2, Vero C1008, 48 h
[3] = system: SARS-CoV-2; experiment: microbe, parasite or virus in culture; conditions: Severe acute respiratory syndrome coronavirus 2, Vero C1008, 48 h
[4] = Vero E6 (Vero C1008) cells, CC50
[5] = Vero E6 (Vero C1008) cells, pCC50

SMILES | CC50 at 48 h [1, 4] | CC50 at 48 h [1, 5] | IC50 ([2]; read-out: IC50) | IC50 ([2]; read-out: pIC50 (converted)) | IC50 [3] | IC50 ([3]; read-out: pIC50 (converted)) | CC50 at 48 h ([1]; vero c1008, CC50) | CC50 at 48 h ([1]; vero c1008, pCC50)
COc1cc2c3cc1Oc1cc(ccc1O)C[C@@H]1c4c(cc(OC)c(O)c4Oc4ccc(cc4)C[C@H]3N(C)CC2)CCN1C | 11.5 µM | 11.5 µM | ~5.37 µM | ~5.37 µM | > 10 µM | > 10 µM |  | 
O=C1c2c(O)cccc2Cc2cccc(O)c21 [ANTHRALIN] | > 100 µM | > 100 µM | > 100 µM | > 100 µM | > 100 µM | > 100 µM |  | 
CN1CCC(CN2c3ccccc3Sc3ccccc32)C1 (configuration not stated) [METHDILAZINE] | 14.8 µM | 14.8 µM | > 100 µM | > 100 µM | 16.2 µM | 16.2 µM |  | 
O=C1NCN(c2ccccc2)C12CCN(CCCC(c1ccc(F)cc1)c1ccc(F)cc1)CC2 | 7 µM | 6.92 µM | > 100 µM | > 100 µM | > 100 µM | > 100 µM |  | 
Cc1c(O)cccc1C(=O)N[C@@H](CSc1ccccc1)[C@H](O)CN1C[C@H]2CCCC[C@H]2C[C@H]1C(=O)NC(C)(C)C | 11.2 µM | 11.2 µM | ~3.97 µM | ~3.98 µM | 5.22 µM | 5.25 µM |  | 
CN1CCC(=C2c3ccccc3Sc3ccccc32)CC1 [PIMETHIXENE] | 25.7 µM | 25.7 µM | > 100 µM | > 100 µM | > 100 µM | > 100 µM |  | 
CNCCCC1c2ccccc2C=Cc2ccccc21 [PROTRIPTYLINE] |  |  | > 100 µM | > 100 µM | > 100 µM | > 100 µM | 26.3 µM | 26.3 µM
CNCCC=C1c2ccccc2C=Cc2ccccc21 | 23.4 µM | 23.4 µM | > 50.1 µM | > 50.1 µM | > 50.1 µM | > 50.1 µM |  | 
COc1cc(Br)c2oc(C3CCNCC3)cc2c1 [BROFAROMINE] | 19.1 µM | 19.1 µM | > 100 µM | > 100 µM | 14.8 µM | 14.8 µM |  | 
CC(C)(C)NC(=O)[C@@H]1C[C@@H]2CCCC[C@@H]2CN1C[C@@H](O)[C@H](Cc1ccccc1)NC(=O)[C@H](CC(N)=O)NC(=O)c1ccc2ccccc2n1 | 18.2 µM | 18.2 µM | > 100 µM | > 100 µM | > 100 µM | > 100 µM |  | 
C[C@H]1c2ccccc2[C@@H](CCCN(C)C)c2cc(C(F)(F)F)ccc21 | 12 µM | 12 µM | 10.5 µM | 10.5 µM | > 100 µM | > 100 µM |  | 
CCOC(=O)[C@H]1O[C@@H]1C(=O)N[C@@H](CC(C)C)C(=O)NCCC(C)C [ALOXISTATIN] | > 100 µM | > 100 µM | 85.1 µM | 85.1 µM | 34.3 µM | 33.9 µM |  | 
CCCSc1ccccc1N1CCN(CCCCn2c(=O)[nH]c3ccccc3c2=O)CC1 [TIOPERIDONE] | 7.24 µM | 7.24 µM | > 100 µM | > 100 µM | 9.12 µM | 9.12 µM |  | 
COc1cc2c(cc1OC)C(c1cccc(Cl)c1)=NN=C(C)C2 [GIRISOPAM] | > 100 µM | > 100 µM | > 100 µM | > 100 µM | > 100 µM | > 100 µM |  | 
CC[C@@H]([C@H](C)O)n1ncn(-c2ccc(N3CCN(c4ccc(OC[C@@H]5CO[C@@](Cn6cncn6)(c6ccc(F)cc6F)C5)cc4)CC3)cc2)c1=O [POSACONAZOLE] | > 100 µM | > 100 µM | > 100 µM | > 100 µM | > 100 µM | > 100 µM |  | 
CC(C)N1CCN(c2ccc(OCC3COC(Cn4cncn4)(c4ccc(Cl)cc4Cl)O3)cc2)CC1 (configuration not stated) [TERCONAZOLE] | ~10 µM | ~10 µM | > 12.6 µM | > 12.6 µM | 16.6 µM | 16.6 µM |  | 
CCOC1O[C@H]([C@@H](COCc2ccccc2)OCc2ccccc2)[C@H](OCc2ccccc2)[C@H]1O (some centres not stated) [TRIBENOSIDE] | 17.4 µM | 17.4 µM | > 50.1 µM | > 50.1 µM | > 50.1 µM | > 50.1 µM |  | 
COc1cc(C(=O)OCCN2CCN(CCCN3c4ccccc4Sc4ccc(Cl)cc43)CC2)cc(OC)c1OC [METOFENAZATE] | > 100 µM | > 100 µM | > 100 µM | > 100 µM | 18.6 µM | 18.6 µM |  | 
CCN(CCO)CCC[C@@H](C)Nc1ccnc2cc(Cl)ccc12 | > 50.1 µM | > 50.1 µM | > 50.1 µM | > 50.1 µM | 12.7 µM | 12.6 µM |  | 
O=c1ccc2ccc(OCCCCN3CCN(c4cccc5sccc45)CC3)cc2[nH]1 [BREXPIPRAZOLE] | 12 µM | 12 µM | > 100 µM | > 100 µM | > 100 µM | > 100 µM |  | 
O=C1CC2(CCCC2)CC(=O)N1CCCCN1CCN(c2nsc3ccccc23)CC1 [TIOSPIRONE] | 24.6 µM | 24.5 µM | > 100 µM | > 100 µM | > 100 µM | > 100 µM |  | 
CC(Cc1ccc(O)c(O)c1)C(C)Cc1ccc(O)c(O)c1 (configuration not stated) [NORDIHYDROGUAIARETIC ACID] | 37.2 µM | 37.2 µM | > 100 µM | > 100 µM | > 100 µM | > 100 µM |  | 
